Experiment [1] has as its system serum lipids (sterol, triglycerides). Kind of experiment: Ability to lower lipid levels in mammals (serum cholesterol and triglycerides in rats, 5 days in diet). Type of experiment: in vivo, male rats COBS, CD, SD strain. Conditions: male rats, oral, 0.1% compound in diet, vs control; for inhibition in vivo at 0.1 % in diet: Rattus norvegicus, 120 h, read-out: % Lowering of Serum Triglycerides. As for the experimental part:
The compounds were also tested for their ability to lower lipid levels in mammals. The compounds were administered orally admixed with diet to groups of four male rats COBS, CD, SD strain from Charles River Breeding Laboratories, Inc., Wilmington, Mass. A control group of eight rats was maintained on the diet alone; test groups were maintained on the diet plus the indicated percentage of test compound by weight. After 5 days treatment, serum cholesterol and triglyceride concentrations were determined by direct enzymatic procedures using a Centrifichem® System 400 autoanalyzer (Union Carbide Co.). Cholesterol concentrations were determined by the combined cholesterol esterase-cholesterol oxidase procedure of Roelschlau et. al., Zeit. Klin. Chem. Klin. Biochem., 12, 226 (1974). Triglycerides were determined by the combined method of lipase catalyzed hydrolysis of triglycerides to glycerol and free fatty acids [Bucolo, G. and David, H., Clin. Chem., 19, 476 (1973) and Wahlefeld, A. W., in "Methods of Enzymatic Analysis", Vol. 4, Bergmeyer, H. U., Editor, Academic Press, New York, N.Y. (1974), pp. 1831-1835] and the enzymatic oxidation of the glycerol which leads to the production of colored formazan [Stavropoulos, W. S. and Crouch, R. D., Clin. Chem., 20, No. 7, 857 (1974)]. […] Compounds which produce statistically significant lowering of either sterol or triglycerides are considered to be active.

Experiment [2] deals with T1, fatty acyl CoA:cholesterol acyl transferase (ACAT) (Rattus norvegicus, UniProt O70536).
T1 construct: The supernatant, containing the microsomal fraction, served as the source of the cholesterol-esterifying enzyme; from tissue; host or cells: rat adrenals, 1000 x g supernatant containing the microsomal fraction
T1 sequence (O70536 1-545): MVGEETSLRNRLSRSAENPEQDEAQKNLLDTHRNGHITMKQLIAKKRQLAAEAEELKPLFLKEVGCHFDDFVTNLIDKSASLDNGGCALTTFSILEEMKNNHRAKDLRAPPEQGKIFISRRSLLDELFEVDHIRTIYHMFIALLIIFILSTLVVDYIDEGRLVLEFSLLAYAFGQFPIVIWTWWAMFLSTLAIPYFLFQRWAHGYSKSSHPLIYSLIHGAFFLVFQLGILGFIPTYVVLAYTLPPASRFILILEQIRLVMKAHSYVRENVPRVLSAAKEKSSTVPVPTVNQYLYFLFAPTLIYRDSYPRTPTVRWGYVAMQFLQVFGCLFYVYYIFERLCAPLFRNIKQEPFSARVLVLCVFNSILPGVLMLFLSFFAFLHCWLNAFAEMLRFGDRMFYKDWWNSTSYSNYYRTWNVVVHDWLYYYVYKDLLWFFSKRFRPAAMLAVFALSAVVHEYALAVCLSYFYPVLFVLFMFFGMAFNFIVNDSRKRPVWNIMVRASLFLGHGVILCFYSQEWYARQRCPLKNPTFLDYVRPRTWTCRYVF
Kind of experiment: Inhibition of ACAT (fatty acyl CoA:cholesterol acyl transferase) in rat adrenal supernatant. Type of experiment: biochemical. The settings on record: rat adrenals, final concentration 5.2 μg./ml., pH 7.4, 37° C. Here is the method: Compounds were tested for their ability to inhibit ACAT according to the following procedure:
Rat adrenals were homogenized in 0.2 M monobasic potassium phosphate buffer, pH 7.4, and centrifuged at 1000 times gravity for 15 minutes at 5° C. The supernatant, containing the microsomal fraction, served as the source of the cholesterol-esterifying enzyme, fatty acyl CoA:cholesterol acyl transferase (ACAT). A mixture comprising 50 parts of adrenal supernatant, 10 parts of albumin (BSA) (50 mg./ml.), 3 parts of test compound (final concentration 5.2 μg./ml.) and 500 parts of buffer was preincubated at 37° C. for 10 minutes. After treatment with 20 parts of oleoyl CoA (^14 C -0.4 μCi) the mixture was incubated at 37° C. for 10 minutes. A control mixture, omitting the test compound, was prepared and treated in the same manner. The lipids from the incubation mixture were extracted into an organic solvent and separated by thin-layer chromatography. The cholesterol ester fraction was counted in a scintillation counter. This procedure is a modification of that described by Hashimoto, et. al., Life Scie., 12 (Part II), 1-12 (1973).
Compounds which produce a statistically significant inhibition of the ACAT enzyme are considered to be active.

In experiment [3] the test system is aortic sterol content. Kind of experiment: Ability to decrease aortic sterol content without effecting serum sterol, cholesterol-fed cockerels. Further details: key: Active: Compounds which produce statistically significant decreases in the aortic sterol content without having an effect on serum sterol are considered to be active. The settings on record: 525 mg. test compound and 20 g. cholesterol per kg. of diet, 14 days. The format is in vivo, Day-old-cockerels. As for the experimental part:
The compounds were further tested for their ability to decrease aortic sterol content without effecting serum sterol.
Day-old-cockerels were placed on diets consisting of pullet starter mash supplemented with either 20 g. cholesterol (control group) or 20 g. cholesterol and 525 mg. test compound (drug-treated group) per kg. of diet.
For the control diet 20 g. of cholesterol is dissolved in 200 ml. of chloroform, mixed into one kg. of pullet starter mash and then the chloroform is removed by evaporation.
For the drug-treatment group 525 mg. of the test compound is dissolved in 100 ml. of chloroform, mixed into a diet prepared as described above and then the chloroform is evaporated.
The cockerels were housed three per cage and given water and their respective diet ad libitum for 14 days. Blood was collected by cardiac puncture and the serum was saponified [Trinder, P., Analyst, 77, 321 (1952)] and extracted and the cholesterol content determined [Zlatkis, A. et. al., J. Lab. Clin. Med., 41, 486 (1953)]. The aortae were removed, cleaned of adventitial tissue and the sterol content determined according to the above procedures. Compounds which produce statistically significant decreases in the aortic sterol content without having an effect on serum sterol are considered to be active.

For the compound `S=C(Nc1c(Cl)cccc1Cl)N1CCN(c2cnccn2)CC1` [2',6'-Dichloro-4-(2-pyrazinyl)-1-piperazinethiocarboxanilide], the inhibition in vivo at 0.1 % in diet in experiment [1] was 37%. The same measure, in the same setting: the same measure for `S=C(Nc1ccccc1Cl)N1CCN(c2cnccn2)CC1` [2'-Chloro-4-(2-pyrazinyl)-1-piperazinethiocarboxanilide]: 49%. The same measure, in the same setting: the same measure for `Fc1ccccc1NC(=S)N1CCN(c2cnccn2)CC1` [2'-Fluoro-4-(2-pyrazinyl)-1-piperazinethiocarboxanilide]: 21%. Consider `S=C(Nc1ccc(Cl)cc1)N1CCN(c2cnccn2)CC1` [4'-Chloro-4-(2-pyrazinyl)-1-piperazinethiocarboxanilide], for which the inhibition in vivo at 0.1 % in diet in experiment [1] was 49%. Besides, the inhibition (commonly the drop in the measured response relative to a control, in per cent) at 5.2 µg/mL in experiment [2] stood at 31%.

Consider `N#Cc1ccc(NC(=S)N2CCN(c3cnccn3)CC2)cc1` [4'-Cyano-4-(2-pyrazinyl)-1-piperazinethiocarboxanilide], for which, in experiment [1], the inhibition in vivo at 0.1 % in diet worked out at 55%. For the same compound, the “Result (decrease of aortic sterol content without effect on serum sterol)” value in experiment [3] is given as “Active”.

As to `Fc1ccc(NC(=S)N2CCN(c3cnccn3)CC2)cc1` [4'-Fluoro-4-(2-pyrazinyl)-1-piperazinethiocarboxanilide], the inhibition in vivo at 0.1 % in diet in experiment [1] is 37%.

In experiment [2], `CC(C)c1ccc(NC(=S)N2CCN(c3cnccn3)CC2)cc1` [4'-Isopropyl-4-(2-pyrazinyl)-1-piperazinethiocarboxanilide] showed an inhibition at 5.2 µg/mL of 56%. With `CCNC(=S)N1CCN(c2cnccn2)CC1` [N--Ethyl-4-(2-pyrazinyl)-1-piperazinethiocarboxamide], in experiment [3], the “Result (decrease of aortic sterol content without effect on serum sterol)” value is listed as “Active”. Take `S=C(Nc1ccccc1)N1CCN(c2cnccn2)CC1` [N--Phenyl-4-(2-pyrazinyl)-1-piperazinethiocarboxamide]: the inhibition in vivo at 0.1 % in diet in experiment [1] was 52%. In experiment [3], the “Result (decrease of aortic sterol content without effect on serum sterol)” value is listed as “Active”. For the compound `S=C(NC1CCCCC1)N1CCN(c2cnccn2)CC1` [N-Cyclohexyl-4-(2-pyrazinyl)-1-piperazinethiocarboxamide], the inhibition in vivo at 0.1 % in diet in experiment [1] was determined as 43%. The compound further yielded an inhibition at 5.2 µg/mL in experiment [2] of 31%. In experiment [2], `CCNC(=S)N1CCN(c2ccc3ccccc3n2)CC1` [N-Ethyl-4-(2-quinolyl)-1-piperazinethiocarboxamide] gave an inhibition at 5.2 µg/mL of 48%. As for `CCNC(=S)N1CCN(c2cncc(OC)n2)CC1` [N-Ethyl-4-(6-methoxy-2-pyrazinyl)-1-piperazinethiocarboxamide], the inhibition in vivo at 0.1 % in diet in experiment [1] came to 38%. For the same compound, in experiment [2], 5.2 µg/mL produced 40% inhibition. Turning to `CNC(=S)N1CCN(c2cnccn2)CC1` [N-Methyl-4-(2-pyrazinyl)-1-piperazinethiocarboxamide], in experiment [1], the inhibition in vivo at 0.1 % in diet was 31%. In addition, the “Result (decrease of aortic sterol content without effect on serum sterol)” value in experiment [3] was “Active”.

For `S=C(NCCc1ccccc1)N1CCN(c2cnccn2)CC1` [N-Phenethyl-4-(2-pyrazinyl)-1-piperazinethiocarboxamide], the “% Lowering of Serum Sterol” value in experiment [1] worked out at 16%. Besides, the inhibition at 5.2 µg/mL in experiment [2] came out at 33%.
